Laboratory results published in ChEMBL document CHEMBL5303304, “EUbOPEN Chemogenomics Library - IncuCyte” (2023).

Key:
Type in all cases: toxicity, cell-based
HEK-293T = experiment: Incucyte cell viability with HEK293T; details: human, 10 µM, compound concentration 10 uM
U2OS = experiment: Incucyte cell viability with U2OS; details: human, 10 µM, compound concentration 10 uM
Fibroblast = experiment: Incucyte cell viability with human fibroblast; details: 10 µM, compound concentration 10 uM
Further: unitless GR value; below 1 slowed growth and below 0 cell loss.

Row | Structure (SMILES) | Growth Rate (HEK-293T; 12 h, replicate number 2) | Growth Rate (HEK-293T; 18 h, replicate number 2) | Growth Rate (HEK-293T; 24 h, replicate number 1) | Growth Rate (U2OS; 0 h, replicate number 1) | Growth Rate (U2OS; 0 h, replicate number 2) | Growth Rate (U2OS; 6 h, replicate number 1) | Growth Rate (U2OS; 6 h, replicate number 2) | Growth Rate (U2OS; 12 h, replicate number 1) | Growth Rate (U2OS; 12 h, replicate number 2) | Growth Rate (U2OS; 18 h, replicate number 1) | Growth Rate (U2OS; 18 h, replicate number 2) | Growth Rate (U2OS; 24 h, replicate number 1) | Growth Rate (U2OS; 24 h, replicate number 2) | Growth Rate (Fibroblast; 0 h, replicate number 1) | Growth Rate (Fibroblast; 6 h, replicate number 1) | Growth Rate (Fibroblast; 12 h, replicate number 1) | Growth Rate (Fibroblast; 18 h, replicate number 1) | Growth Rate (Fibroblast; 18 h, replicate number 2) | Growth Rate (Fibroblast; 24 h, replicate number 1) | Growth Rate (HEK-293T; 0 h, replicate number 1) | further results
1 | CNc1nc(-c2cc(C(=O)N3CCN(Cc4ccc(Cl)cc4)CC3)c(Cl)cn2)cs1 | 0.01 | 0.14 | 0.69 | -0.54 | -0.41 | -0.33 | -0.21 | 0.1 | 0.27 | 0.4 | 0.37 | 0.37 | 0.65 | -1 | -0.5 | -0.19 | -0.06 | -0.12 | 0.23 | – | Growth Rate (HEK-293T; 6 h, replicate number 1): 0.91; Growth Rate (HEK-293T; 6 h, replicate number 2): -0.49; Growth Rate (HEK-293T; 12 h, replicate number 1): 0.62; Growth Rate (HEK-293T; 18 h, replicate number 1): 0.62; Growth Rate (HEK-293T; 24 h, replicate number 2): 0.23; Growth Rate (Fibroblast; 6 h, replicate number 2): -0.96; Growth Rate (Fibroblast; 12 h, replicate number 2): -0.28; Growth Rate (Fibroblast; 24 h, replicate number 2): 0.18
2 | CN(C)C(=O)Cn1cc(-c2nc([C@@](C)(c3ccc(-c4cnc(N)nc4)cc3)C3CC3)no2)cn1 [BI 665915] | – | 0.9 | 0.96 | – | 0.28 | 0.55 | 0.71 | 0.68 | 0.87 | – | 0.99 | 0.95 | 0.88 | -1 | 0.2 | 0.51 | 0.71 | 0.97 | 0.6 | 0.53 | Growth Rate (HEK-293T; 6 h, replicate number 1): 0.47; Growth Rate (HEK-293T; 18 h, replicate number 1): 0.93; Growth Rate (Fibroblast; 0 h, replicate number 2): -0.12
3 | NC(=O)c1cc2c(-c3ccc(C(=O)NCc4ccnc(Cl)c4)s3)cccc2s1 | -0.32 | -0.17 | -0.23 | -0.34 | 0.46 | -0.24 | -0.51 | 0.05 | -0.23 | 0 | -0.03 | 0.05 | 0.03 | – | -1 | – | – | -0.25 | – | – | Growth Rate (HEK-293T; 6 h, replicate number 1): -0.51; Growth Rate (HEK-293T; 6 h, replicate number 2): -0.71; Growth Rate (HEK-293T; 12 h, replicate number 1): -0.4; Growth Rate (HEK-293T; 18 h, replicate number 1): -0.29; Growth Rate (HEK-293T; 24 h, replicate number 2): -0.09; Growth Rate (Fibroblast; 6 h, replicate number 2): -0.95; Growth Rate (Fibroblast; 12 h, replicate number 2): -0.43; Growth Rate (Fibroblast; 24 h, replicate number 2): -0.11
4 | c1ccc2c(-c3coc4cc(-c5ccc(N6CCNCC6)cc5)cnc34)ccnc2c1 | -0.56 | -0.43 | -0.3 | – | 0.9 | – | 0 | 0.59 | -0.36 | 0.14 | -0.38 | -0.05 | -0.46 | 0.87 | – | 0.93 | 0.29 | 0.28 | 0.1 | – | Growth Rate (HEK-293T; 0 h, replicate number 2): -1; Growth Rate (HEK-293T; 6 h, replicate number 1): -0.57; Growth Rate (HEK-293T; 6 h, replicate number 2): -0.5; Growth Rate (HEK-293T; 12 h, replicate number 1): -0.52; Growth Rate (HEK-293T; 18 h, replicate number 1): -0.42; Growth Rate (HEK-293T; 24 h, replicate number 2): -0.33; Growth Rate (Fibroblast; 12 h, replicate number 2): 0.61; Growth Rate (Fibroblast; 24 h, replicate number 2): 0.11
5 | C=CC(=O)Nc1ccc2[nH]c(=O)n(C3CCN(Cc4ccc(-c5ccc6c(c5)NC(=O)CO6)cc4)CC3)c2c1 [RL2578] | 0.43 | 0.45 | 0.26 | 0.69 | – | 0.83 | – | 0.76 | 0.91 | 0.75 | 0.78 | 0.93 | 0.62 | -1 | 0.84 | 0.87 | 0.72 | 0.52 | 0.45 | – | Growth Rate (HEK-293T; 6 h, replicate number 1): 0.24; Growth Rate (HEK-293T; 6 h, replicate number 2): 0.23; Growth Rate (HEK-293T; 12 h, replicate number 1): 0.24; Growth Rate (HEK-293T; 18 h, replicate number 1): 0.28; Growth Rate (HEK-293T; 24 h, replicate number 2): 0.42; Growth Rate (Fibroblast; 6 h, replicate number 2): 0.95; Growth Rate (Fibroblast; 12 h, replicate number 2): 0.71; Growth Rate (Fibroblast; 24 h, replicate number 2): 0.51
6 | C[C@H](CCOc1cccc(CC(=O)O)c1)N(Cc1cccc(C(F)(F)F)c1Cl)CC(c1ccccc1)c1ccccc1.Cl | – | 1 | – | 0.53 | -0.96 | 0.93 | 1 | – | – | 0.83 | – | 0.93 | – | 0.93 | 0.72 | 0.72 | 0.83 | 0.23 | 0.64 | -0.43 | Growth Rate (Fibroblast; 6 h, replicate number 2): 0.01; Growth Rate (Fibroblast; 12 h, replicate number 2): 0.55; Growth Rate (Fibroblast; 24 h, replicate number 2): 0.52
7 | O=C(N[C@@H]1C2CCN(CC2)[C@H]1Cc1cccnc1)c1cc2ccccc2o1 [BRADANICLINE] | – | 0.96 | 0.96 | – | – | – | 0.66 | – | 0.78 | – | 0.99 | 0.93 | 0.96 | – | – | -0.73 | 0.35 | – | 0.82 | 0.69 | Growth Rate (HEK-293T; 0 h, replicate number 2): 0.79; Growth Rate (Fibroblast; 0 h, replicate number 2): -0.99
8 | Cn1nccc1Nc1nccc(-c2cc3c(s2)C(C)(C)N(CCN2CCOCC2)C3=O)n1 [TEMUTERKIB] | 0.76 | – | – | -0.62 | -0.42 | 0.47 | 0.51 | 0.66 | – | – | 0.82 | – | 0.9 | -0.63 | – | -0.93 | 0.27 | – | 0.12 | 0.39 | Growth Rate (HEK-293T; 6 h, replicate number 2): 0.33; Growth Rate (HEK-293T; 24 h, replicate number 2): 1; Growth Rate (Fibroblast; 0 h, replicate number 2): -0.1
9 | CCc1cc2c(cc1-c1cccc(S(=O)(=O)F)c1)C(C)(C)c1[nH]c3cc(C#N)ccc3c1C2=O | 0.78 | 0.95 | 0.69 | -1 | -0.59 | 0.58 | – | 0.52 | 0.66 | 0.76 | – | 0.66 | 0.77 | -0.25 | – | -0.96 | -0.55 | 0.89 | 0.61 | 0.33 | Growth Rate (HEK-293T; 0 h, replicate number 2): 0.37; Growth Rate (HEK-293T; 6 h, replicate number 1): -0.16; Growth Rate (HEK-293T; 6 h, replicate number 2): -0.05; Growth Rate (HEK-293T; 12 h, replicate number 1): 0.48; Growth Rate (HEK-293T; 18 h, replicate number 1): 0.83; Growth Rate (Fibroblast; 6 h, replicate number 2): 0.75; Growth Rate (Fibroblast; 24 h, replicate number 2): 0.9
10 | NCc1ccc(OCCCc2sc(-c3ccc4c(c3)/C(=N/Nc3nc5ccccc5s3)CCC4)nc2C(=O)O)cc1 | – | – | – | 0.77 | – | 0.23 | – | 0.44 | 0.7 | 0.63 | 0.72 | 0.58 | 0.74 | – | 0.94 | – | – | – | – | 0.54 | Growth Rate (HEK-293T; 0 h, replicate number 2): -0.79; Growth Rate (Fibroblast; 0 h, replicate number 2): -0.83
11 | O=C(NC1CCNCC1)c1n[nH]cc1NC(=O)c1c(Cl)cccc1Cl [AT-7519] | -0.63 | -0.51 | -0.15 | – | – | 0.44 | 0.71 | 0.18 | 0.4 | 0.05 | – | -0.08 | 0.03 | -1 | 0.78 | 0.38 | 0.17 | -0.23 | 0.08 | -0.17 | Growth Rate (HEK-293T; 6 h, replicate number 1): -0.3; Growth Rate (HEK-293T; 6 h, replicate number 2): -0.74; Growth Rate (HEK-293T; 12 h, replicate number 1): -0.27; Growth Rate (HEK-293T; 18 h, replicate number 1): -0.2; Growth Rate (HEK-293T; 24 h, replicate number 2): -0.4; Growth Rate (Fibroblast; 0 h, replicate number 2): -0.43; Growth Rate (Fibroblast; 6 h, replicate number 2): 0.01; Growth Rate (Fibroblast; 12 h, replicate number 2): -0.1; Growth Rate (Fibroblast; 24 h, replicate number 2): -0.17
12 | CS(=O)(=O)NCC[C@H](NC(=O)c1cncc2c1cnn2-c1ccc(F)cc1)c1ccnc(S(C)(=O)=O)c1 [BI 9307] | – | – | 1 | – | – | 0.83 | 0.9 | – | 0.91 | – | – | – | – | -0.98 | 0.89 | 0.91 | – | – | – | -0.12 | Growth Rate (HEK-293T; 0 h, replicate number 2): 0.23; Growth Rate (Fibroblast; 0 h, replicate number 2): -0.94
13 | Cc1c(N2CCCC2)nc2ccc(Br)cc2c1C(=O)NC[C@H](CCC(=O)O)c1ccccc1Cl [BAY-6672] | 0.76 | 0.38 | – | 0.89 | 0.47 | 0.7 | 0.83 | 0.88 | 0.83 | 0.67 | 0.9 | 0.98 | 0.79 | – | 0.13 | 0.91 | 0.97 | 0.93 | – | -0.43 | Growth Rate (HEK-293T; 24 h, replicate number 2): 0.44; Growth Rate (Fibroblast; 24 h, replicate number 2): 0.89
